# Measured values reported in patent US20250144067A1, “PERSONALIZED STARVATION THERAPY FOR CANCER” (Faeth Therapeutics, Inc., priority 2021, published 2025).
# Counter-ions that a name gives are not always drawn. Like-named read-outs stand apart in the source and are kept apart here.
# Experiments:
# [1] = test system: NCI-H292 lung cancer cells; experiment: FDA drug screening, complete media vs cholesterol-free media without statin (TABLE 1); assay type: cell-based, human
# [2] = test system: NCI-H292 lung cancer cells; experiment: FDA drug screening, complete media vs cholesterol-free media with simvastatin (TABLE 2); assay type: cell-based, human
# [3] = Complete minus Cholesterol-free, greater than 0 enhanced anti-cancer activity, about 0 neutral, below 0 antagonists
# [4] = NCI-H292 cells in cholesterol-free media without statin
# [5] = NCI-H292 cells in complete media
# [6] = NCI-H292 cells, drug in cholesterol-free media with simvastatin 0.04 μM
# [7] = NCI-H292 cells, drug in complete media
# [8] = complete media vs cholesterol-free media + simvastatin (0.04 μM), >0 enhanced anti-cancer activity, about 0 neutral, <0 antagonist
# [9] = Complete minus Cholesterol-free, >0 enhanced anti-cancer activity, about 0 neutral, <0 antagonist
# [10] = NCI-H292 cells, cholesterol-free media without statin
# [11] = NCI-H292 cells, FDA drug library screen, cholesterol-free media with simvastatin 0.04 μM
# [12] = NCI-H292 cells, FDA drug library screen, complete media
# [13] = Complete minus Cholesterol-free, greater than 0 enhanced anti-cancer activity, about 0 neutral, below 0 antagonist
# [14] = NCI-H292 cells, FDA drug library screen, cholesterol-free media without statin
# [15] = NCI-H292 cells, cholesterol-free media without statin, FDA drug library screen
# [16] = NCI-H292 cells, complete media, FDA drug library screen
# [17] = NCI-H292 cells, cholesterol-free media with simvastatin 0.04 μM, cell growth value in FDA drug screen
# [18] = NCI-H292 cells, complete media, cell growth value in FDA drug screen
# [19] = complete media minus cholesterol-free media + simvastatin, >0 enhanced anti-cancer activity, about 0 neutral, <0 antagonist
# [20] = NCI-H292 cells, FDA library drug in cholesterol-free media with simvastatin 0.04 μM
# [21] = NCI-H292 cells, FDA library drug in complete media
# [22] = NCI-H292 cells, cholesterol-free media with simvastatin 0.04 μM, FDA drug library screen (TABLE 2)
# [23] = NCI-H292 cells, complete media, FDA drug library screen (TABLE 2)
# [24] = complete media minus cholesterol-free media + simvastatin (0.04 μM), >0 enhanced anti-cancer activity, about 0 neutral, <0 antagonist
# [25] = complete vs cholesterol-free media, greater than 0 enhanced anti-cancer activity, about 0 neutral, below 0 antagonists
compound,measurement,setting,value
CC[C@H]1OC(=O)[C@H](C)[C@@H](O[C@H]2C[C@@](C)(OC)[C@@H](O)[C@H](C)O2)[C@H](C)[C@@H](O[C@@H]2O[C@H](C)C[C@H](N(C)C)[C@H]2O)[C@](C)(O)C[C@@H](C)C(=O)[C@H](C)[C@@H](O)[C@]1(C)O [Erythromycin],Difference,[1]; [3],−0.99
same,Cholesterol-free,[1]; [4],1.913
same,Complete,[1]; [5],0.9269
same,Cholesterol-free media + simvastatin (0.04 μM),[2]; [6],1.202
same,Complete Media,[2]; [7],0.9929
same,Difference,[2]; [8],−0.21
[H]/N=C(/N)NS(=O)(=O)c1ccc(N)cc1 [Sulfaguanidine],Difference,[1]; [9],−0.24
same,Cholesterol-free,[1]; [10],1.183
same,Complete,"[1]; NCI-H292 cells, complete media",0.939
same,Cholesterol-free media + simvastatin (0.04 μM),[2]; [6],1.092
same,Complete Media,[2]; [7],0.8866
same,Difference,[2]; [8],−0.21
CC(C)=CCC/C(C)=C/CC/C(C)=C/CCC(=O)OC/C=C(\C)CCC=C(C)C [Gefarnate],Cholesterol-free,[1],1.413
same,Complete,[1],0.9135
same,Difference,[1],−0.50
same,Cholesterol-free media + simvastatin (0.04 μM),[2],1.714
same,Complete Media,[2],1.906
same,Difference,[2],0.19
CNc1ncc(-c2ccc3c(=O)c(C(=O)O)cn(C4CC4)c3c2C)cc1C [Ozenoxacin],Cholesterol-free,[1]; [10],1.08
same,Complete,"[1]; NCI-H292 cells, complete media",0.7589
same,Difference,"[1]; complete vs cholesterol-free media, […]",−0.32
same,Cholesterol-free media + simvastatin (0.04 μM),[2]; [11],0.8626
same,Complete Media,[2]; [12],0.762
same,Difference,"[2]; complete media vs cholesterol-free media + simvastatin (0.04 μM), […]",−0.10
COc1c(N2CCNC(C)C2)c(F)cc2c(=O)c(C(=O)O)cn(C3CC3)c12 (stereo not shown) [Gatifloxacin (hydrochloride)],Difference,[1]; [13],−0.09
same,Cholesterol-free,[1]; [14],1.038
same,Complete,[1]; [12],0.9512
same,Cholesterol-free media + simvastatin (0.04 μM),[2]; [11],0.9302
same,Complete Media,[2]; [12],0.7736
same,Difference,[2]; [8],−0.16
CC(=O)Nc1cccc(-n2c(=O)n(C3CC3)c(=O)c3c(Nc4ccc(I)cc4F)n(C)c(=O)c(C)c32)c1 [Trametinib],Difference,[1]; [9],−0.06
same,Cholesterol-free,[1]; [15],0.4164
same,Complete,[1]; [16],0.3595
same,Cholesterol-free media + simvastatin (0.04 μM),[2]; [17],0.2423
same,Complete Media,[2]; [18],0.2586
same,Difference,[2]; [19],0.02
Cn1cnc2c(F)c(Nc3ccc(Br)cc3F)c(C(=O)NOCCO)cc21 [Binimetinib],Difference,[1]; [9],0.01
same,Cholesterol-free,[1]; [15],0.1731
same,Complete,[1]; [16],0.1825
same,Cholesterol-free media + simvastatin (0.04 μM),[2]; [11],0.4887
same,Complete Media,[2]; [12],0.381
same,Difference,[2]; [8],−0.11
CN1CCCC(CC2c3ccccc3Sc3ccccc32)C1 (stereo not shown) [Metixene hydrochloride hydrate],Difference,[1]; [9],−0.25
same,Cholesterol-free,[1]; [10],1.293
same,Complete,"[1]; NCI-H292 cells, complete media",1.044
same,Cholesterol-free media + simvastatin (0.04 μM),[2]; [6],1.206
same,Complete Media,[2]; [7],1.036
same,Difference,[2]; [8],−0.17
O=C(Cn1ccnc1[N+](=O)[O-])NCc1ccccc1 [Benznidazol],Cholesterol-free,[1]; [15],1.047
same,Complete,[1]; [16],1.215
same,Difference,"[1]; complete vs cholesterol-free media, >0 enhanced anti-cancer activity, about 0 neutral, <0 antagonist",0.17
same,Cholesterol-free media + simvastatin (0.04 μM),[2]; [20],2.104
same,Complete Media,[2]; [21],1.636
same,Difference,[2]; [8],−0.47
CC(C)Cc1ccc([C@H](C)C(=O)O)cc1 [(S)-(+)-Ibuprofen],Difference,[1]; [9],−0.01
same,Cholesterol-free,[1]; [15],1.011
same,Complete,[1]; [16],0.9982
same,Complete Media,[2]; [7],0.9605
same,Difference,[2]; [8],−0.26
COc1ccc2c(c1)N(C[C@H](C)CN(C)C)c1ccccc1S2 [Levomepromazine],Difference,[1]; [9],0.01
same,Cholesterol-free,[1]; [15],0.8962
same,Complete,[1]; [16],0.9041
same,Cholesterol-free media + simvastatin (0.04 μM),[2]; [11],0.8554
same,Complete Media,[2]; [12],1.084
same,Difference,[2]; [19],0.23
CN(C)CCN(Cc1ccc(Cl)cc1)c1ccccn1 [Chloropyramine hydrochloride],Difference,[1]; [13],−0.17
same,Cholesterol-free,[1]; [14],1.558
same,Complete,[1]; [12],1.385
same,Cholesterol-free media + simvastatin (0.04 μM),[2]; [17],0.999
same,Complete Media,[2]; [18],1.055
same,Difference,[2]; [19],0.06
CCOc1ccc2ccccc2c1C(=O)N[C@@H]1C(=O)N2[C@@H]1SC(C)(C)[C@@H]2C(=O)O [Nafcillin (sodium monohydrate)],Difference,[1]; [3],−1.00
same,Cholesterol-free,[1]; [4],1.957
same,Complete,[1]; [5],0.9538
same,Cholesterol-free media + simvastatin (0.04 μM),[2]; [11],0.8693
same,Difference,[2]; [19],0.30
[H]/N=C(\N/C(=N/[H])NCCCCCCNC(=N)NC(=N)Nc1ccc(Cl)cc1)Nc1ccc(Cl)cc1 [Chlorhexidine],Difference,[1]; [9],0.04
same,Cholesterol-free,[1]; [15],0.0819
same,Complete,[1]; [16],0.1259
same,Cholesterol-free media + simvastatin (0.04 μM),[2]; [22],0.6176
same,Complete Media,[2]; [23],0.5919
same,Difference,[2]; [24],−0.03
Nc1ncn([C@@H]2O[C@H](CO)[C@@H](O)[C@H]2O)c(=O)n1 [5-Azacytidine],Cholesterol-free,[1]; [10],1.157
same,Complete,"[1]; NCI-H292 cells, complete media",0.8064
same,Difference,[1]; [25],−0.35
same,Cholesterol-free media + simvastatin (0.04 μM),[2]; [22],0.9383
same,Complete Media,[2]; [23],0.8858
same,Difference,[2]; [24],−0.05
CC(=C(CCO)SSCC1CCCO1)N(C=O)Cc1cnc(C)nc1N (stereo in doubt) [Fursultiamine],Cholesterol-free,[1],1.191
same,Complete,[1],1.162
same,Difference,[1],−0.03
same,Cholesterol-free media + simvastatin (0.04 μM),[2],1.842
same,Complete Media,[2],1.268
same,Difference,[2],−0.57
Cn1c([N+](=O)[O-])cnc1COC(N)=O [Ronidazole],Cholesterol-free,[1]; [10],1.54
same,Complete,"[1]; NCI-H292 cells, complete media",1.069
same,Difference,[1]; [25],−0.47
same,Cholesterol-free media + simvastatin (0.04 μM),[2]; [11],0.9748
same,Complete Media,[2]; [12],1.335
same,Difference,[2]; [19],0.36
C[S+](C)CCC(N)C(=O)O.[Cl-] (racemic) [DL-Methionine methylsulfonium (chloride)],Difference,[1]; [13],−0.16
same,Cholesterol-free,[1]; [14],1.102
same,Complete,[1]; [12],0.9454
same,Cholesterol-free media + simvastatin (0.04 μM),[2]; [20],1.182
same,Complete Media,[2]; [21],0.8884
same,Difference,[2]; [8],−0.29
CC(C)NCC(O)COc1ccc(CCOCC2CC2)cc1 (stereo not shown) [Betaxolol],Difference,[1]; [13],−0.10
same,Cholesterol-free,[1]; [14],1.183
same,Complete,[1]; [12],1.079
same,Cholesterol-free media + simvastatin (0.04 μM),[2]; [22],0.941
same,Complete Media,[2]; [23],0.9172
same,Difference,[2]; [24],−0.02
CC1(C)[C@@H](O)CC[C@]2(C)[C@H]3C(=O)C=C4[C@@H]5C[C@@](C)(C(=O)O)CC[C@]5(C)CC[C@@]4(C)[C@]3(C)CC[C@@H]12 [18β-Glycyrrhetinic acid],Difference,[1]; [13],−0.09
same,Cholesterol-free,[1]; [14],1.192
same,Complete,[1]; [12],1.102
same,Cholesterol-free media + simvastatin (0.04 μM),[2]; [11],0.8991
same,Complete Media,[2]; [12],0.8018
same,Difference,[2]; [8],−0.10
Fc1ccc([C@@H]2CCNC[C@H]2COc2ccc3c(c2)OCO3)cc1 [Paroxetine (hydrochloride)],Difference,[1]; [9],−0.22
same,Cholesterol-free,[1]; [10],1.09
same,Complete,"[1]; NCI-H292 cells, complete media",0.8739
same,Cholesterol-free media + simvastatin (0.04 μM),[2]; [22],0.916
same,Complete Media,[2]; [23],0.9086
same,Difference,[2]; [24],−0.01
OC[C@H]1NC[C@H](O)[C@@H](O)[C@H]1O [Migalastat (hydrochloride)],Difference,"[1]; Complete minus Cholesterol-free, […]",−0.53
same,Cholesterol-free,[1]; [4],1.45
same,Complete,[1]; [5],0.9162
same,Cholesterol-free media + simvastatin (0.04 μM),"[2]; NCI-H292 cells, cholesterol-free media with simvastatin 0.04 μM, […]",0.7275
same,Complete Media,"[2]; NCI-H292 cells, complete media, […]",0.7465
same,Difference,"[2]; complete media minus cholesterol-free media + simvastatin, […]",0.02
